Legend:
[1] = Cytotoxicity, alamarBlue viability, NMH cells; format: cell-based, mouse; conditions: mouse
Method: (§1) NMH cells or HuH28 cells (1 × 10^4/well) of 100 μl aliquots were seeded on a 96-well black plate. Test samples were added and incubated for 72 h. NP-40 was added as a positive control (100% cytotoxicity) and a solvent in which the samples were dissolved as a negative control (0% cytotoxicity). Then 10 μl of alamarBlue reagent (10%, Funakoshi Co., Tokyo, Japan) for mitochondria staining was added and incubated for another 4 h. The fluorescence intensity (544 nm/590 nm) was measured with a plate reader (measurement time: 0.1 s).
(§2) The concentration required to reduce cell viability by 50% (CC50) was calculated using the following equation: CC50=10^logA/B×50-C/D-C+logB, where A is the lowest concentration at which the cell viability exceeds 50%, B is the highest concentration at which cell viability is less than 50%, and C and D are the cell viability of the sample at concentrations B and A, respectively.

[2] = Cytotoxicity, alamarBlue viability, HuH28 cells; format: cell-based; conditions: human
Method: as §1, §2

[3] = tested on: T. cruzi Intracell Ama (Luc2-Tulahuen); test: In vitro anti-T. cruzi (intracellular amastigotes) luciferase assay in NMH cells; format: cell-based, Trypanosoma cruzi; conditions: for loss of luminescence intensity in IC50 curve, in words: NMH cells with amastigotes (Supplement Figure 2); for IC50: Trypanosoma cruzi, TULAHUEN, infected NMH cells, 72 h
Method: The intracellular amastigotes assay was described by Alonso-Padilla et al.. Briefly, 6 × 10^6 trypomastigotes and 3 × 10^6 host cells (NMH cells) are seeded in a 25 cm^2 flask in serum-free media (MEM + 1% newborn calf serum) to enhance the intracellular infection. After 24 h incubation, the cells were washed twice with phosphate buffered saline (PBS), then replaced by MEM + 10% newborn calf serum and incubated for another 24 h. Infected cells were detached by trypsinization. Infected host fibroblast cells (5 × 10^4/well) were seeded into a 96-well plate. Test samples and the controls were added to the mixture and incubated for 72 h. Luminescence intensity was measured by a plate reader and the Piccagene (Measurement time: 1 s).
(§3) The IC50 was calculated using the following equation: IC50=10^logA/B×50-C/D-C+logB, where A is the lowest concentration at which the percentage inhibition exceeds 50%, B is the highest concentration at which percentage inhibition is less than 50%, and C and D are the percentage inhibition of the sample at concentrations B and A, respectively.

[4] = molecular target: T. cruzi Trypo + Ama (Luc2-Tulahuen); test: In vitro anti-T. cruzi (trypomastigotes and amastigotes) mixture culture luciferase assay; format: cell-based, Trypanosoma cruzi; conditions: for IC50 / inhibition at 20 µM: Trypanosoma cruzi, TULAHUEN; for IC50: trypomastigotes mixed with NMH cells, 72 h; for reduction of parasite signals (inhibition in the T. cruzi mixture culture): first screen, compounds 20 μM (Fig. 1); for inhibition at 20 µM: read-out: reduction of parasite signals (inhibition in the T. cruzi mixture culture)
Method: Luc2-Tulahuen trypomastigotes (3 × 10^4/well) and NMH cells (5 × 10^4/well) were mixed into a 96-well white plate. Test samples and controls were added and incubated with the cells for 72 h. NP-40 (Wako Pure Chemicals Industrial Ltd, Japan) was used as the positive control, and a solvent in which the drug was dissolved as a negative. After 72 h of incubation, 100 μl of luciferin solution containing 0.6% NP-40 (Piccagene) (Toyo Ink Group, Japan) was added. Luminescence intensity was measured by a plate reader (ARVO MX 1420) (Measurement time: 1 s).
as §3

[5] = tested on: T. cruzi Epi (Luc2-Tulahuen epimastigotes); test: In vitro assay for anti-epimastigote form of T. cruzi activity (luciferase); format: cell-based, Trypanosoma cruzi; conditions: for IC50: Trypanosoma cruzi, TULAHUEN, epimastigotes, 72 h
Method: Luc2-Tulahuen epimastigotes (2 × 10^5/well) were dispensed into 96-well plate. After 72 h incubation, luminescence intensity was measured by adding lysis buffer with luciferin as substrate (PicaGene Luminescence Kit, Fuji Film Wako chemicals, Japan) (Measurement time: 1 s).
as §3

[6] = tested on: NMH cells (newborn mouse heart fibroblast cells); test: Cytotoxicity, alamarBlue viability, NMH cells; format: cell-based
Method: as §1, §2

[7] = in vivo; cited from earlier work
[8] = tested on: T. cruzi (Luc2-Tulahuen trypomastigotes); test: Murine acute infection model with live bioluminescence imaging; format: in vivo, BALB/c mice; conditions: for luminescence intensity / parasiticidal activity compared with benznidazole group: 30 mg/kg bid i.p. vs benznidazole 100 mg/kg p.o., day 4 to 8
Method: Mice were housed and maintained in Nagasaki University Biomedical Research Center (12 h light/dark cycle). Female BALB/c mice from 6 to 10 weeks old (20–25 g) were used in all the experiments. Mice were obtained as wild type from SLC (Japan). In standard experiments, 5 × 10^3 in vitro tissue culture-derived trypomastigotes (TCTs) was intra-peritoneally (i.p.) inoculated into mouse. The mice were handled according to the international guidelines and institutional guideline of Nagasaki University for the use and maintenance of experimental animals. Ethical approval for this study was obtained from the institutional ethical review board, Nagasaki University (approval number R12005).
Mice were intra-peritoneally injected with 150 mg/kg d-luciferin (SYD labs, USA), then anesthetized using 2.5% (vol/vol) gaseous isoflurane in oxygen. To measure bioluminescence, mice were placed in an IVIS Lumina II system (Caliper Life Science, USA) and images were acquired 10 min after d-luciferin administration using LivingImage 4.3 (Caliper Life Sciences, USA). Exposure time was fixed as 5 min. Anesthesia was maintained throughout the imaging process through the nose cone. Whole body luminescence was determined by drawing the region of interest (ROI) and quantifying the bioluminescence expressed as total flux (photons/second; p/s). Coptisine chloride was administered intra-peritoneally (i.p.) at a dose of 30 mg/kg twice a day. Benznidazole (100 mg/kg) as a positive control and the drug solvent as a negative control were administered orally (p.o.) once a day. Drug was administered for 5 consecutive days from day 4 to 8 of infection. Measurements with IVIS Lumina II were performed at five different times: on day 3 of infection (the day before drug treatment), on day 9 of infection (the day after drug treatment was completed), on day 14, 28 and 40 of infection. To maintain fairness, different experimenters performed drug treatments and luminescence intensity measurements. At day 29, BALB/c mice were injected with cyclophosphamide (Sigma-Aldrich, USA) (200 mg/kg) as an immunosuppressant by i.p. and were followed by a maximum of 3 doses at 3 day intervals. The use of immunosuppressant like cyclophosphamide could help enhance the visibility of the infected lesions even after 100 dpi. In this animal study, treatment was given when the luminescence intensity was high. In addition, an immunosuppressant was administered when the difference in luminescence intensity among the three groups became small due to natural immunity of the mice.

[9] = tested on: DHODH in Plasmodium falciparum; design: method as in PMID 29582555; conditions: cited from earlier work
[10] = tested on: mouse fibroblast cells (NMH) and human bile duct carcinoma cell line (HuH28); test: Cytotoxicity screen of Kampo library on host cells (alamarBlue); format: cell-based; conditions: compounds 20 μM (Fig. 2)
Excerpt: Data are presented as percent reduction in intensity, indicating cell viability. Experiments were done in triplicates

[11] = tested on: human DHODH; design: method as in PMID 29582555; conditions: cited from earlier work
[12] = NMH cells (newborn mouse heart fibroblast cells), 72 h, read-out: CC50, NMH, AlamarBlue viability
[13] = HuH28 cells (human bile duct carcinoma cell line), 72 h, read-out: CC50, HuH28, AlamarBlue viability

## c1cc2c(c3c1CC1c4cc5c(cc4CCN1C3)OCO5)OCO2 (racemic) [dl-Tetrahydro coptisine]
[1]; [12]
  CC50 at 72 h: > 40 µM
[2]; [13]
  CC50 at 72 h: > 100 µM
[3]
  loss of luminescence intensity in IC50 curve, in words: No loss of intensity
  IC50: > 40 µM
[4]; NMH cells and trypomastigotes (Supplement Figure 1)
  loss of luminescence intensity in IC50 curve, in words: No loss of intensity
[4]
  IC50: > 40 µM

## CC(C)=CC[C@H](O)C1=CC(=O)c2c(O)ccc(O)c2C1=O [Alkanin]
[4]
  reduction of parasite signals (inhibition in the T. cruzi mixture culture): more than 80%

## O=C(Cn1ccnc1[N+](=O)[O-])NCc1ccccc1 [Benznidazole, reference compound]
[1]
  CC50 at 72 h: > 40 µM
[2]
  CC50 at 72 h: > 100 µM
[3]
  IC50: 4.91 µM
[4]
  IC50: 2.78 µM
[5]
  IC50: 3.78 µM

## COc1ccc2cc3[n+](cc2c1OC)CCc1cc2c(cc1-3)OCO2.[Cl-] [Berberin chloride]
[4]
  reduction of parasite signals (inhibition in the T. cruzi mixture culture): more than 80%

## COc1ccc2cc3[n+](cc2c1O)CCc1cc2c(cc1-3)OCO2 [Berberrubine chloride]
[1]
  CC50 at 72 h: > 40 µM
[6]
  cytotoxic effect against normal NMH cells, in words: slight cytotoxic effect
[2]
  CC50 at 72 h: > 100 µM
[3]
  IC50: 33.5 µM
[4]
  IC50: 20.1 µM

## c1c2c(cc3c1OCO3)-c1cc3ccc4c(c3c[n+]1CC2)OCO4 [Coptisine chloride]
[1]; [12]
  CC50 at 72 h: > 40 µM
[7]
  oral bioavailability, in words: low
[2]; [13]
  CC50 at 72 h: > 100 µM
[3]
  IC50: 4.98 µM
[8]; 30 mg/kg bid i.p. day 4 to 8, compared with benznidazole 100 mg/kg p.o.
  relapse detected on day 40 after immunosuppressant: smaller than that in the benznidazole treatment group
[8]; 30 mg/kg bid i.p. day 4 to 8, day 40, after cyclophosphamide
  luminescence intensity after immune suppression treatment compared with control group: significantly reduced
[8]; listed as coptisine
  luminescence intensity / parasiticidal activity compared with benznidazole group: equivalent parasiticidal activity
[8]; listed as coptisine chloride
  luminescence intensity / parasiticidal activity compared with benznidazole group: slightly higher than that of the benznidazole group
[8]; 30 mg/kg bid i.p., day 4 to 8 of infection, after 5-day treatment
  luminescence intensity of treated group compared with untreated group: significantly reduced
[8]; BALB/c mice, 30 mg/kg bid i.p.
  adverse events during in vivo experiment: did not see any significant adverse events
[9]
  inhibition of DHODH in Plasmodium falciparum, in words: non-competitively inhibits
[4]
  inhibition at 20 µM: > 80%
  IC50: 4.48 µM
[10]
  cytotoxic effect on host cells, in words: relatively lower cytotoxicity
[11]
  inhibitory activity against human DHODH, in words: weak inhibitory activity
[5]
  IC50: 15.1 µM
[5]; from IC50 15.1 µM vs 3.78 µM
  effectiveness against epimastigotes relative to benznidazole: fourfold less effective

## COc1cc2c(cc1OC)-c1c(C)c3ccc(OC)c(OC)c3c[n+]1CC2 [Dehydrocorydaline nitrate]
[1]
  CC50 at 72 h: > 40 µM
[2]
  CC50 at 72 h: > 100 µM
[3]
  IC50: 7.89 µM
[4]
  inhibition at 20 µM: > 80%
  IC50: 3.47 µM
[10]
  cytotoxic effect on host cells, in words: relatively lower cytotoxicity
[5]
  IC50: 17.3 µM

## COc1cc2c(cc1OC)-c1cc3ccc4c(c3c[n+]1CC2)OCO4 [Epiberberine chloride]
[1]
  CC50 at 72 h: > 40 µM
[2]
  CC50 at 72 h: > 100 µM
[3]
  loss of luminescence intensity in IC50 curve, in words: No loss of intensity
  IC50: > 40 µM
[4]
  IC50: > 40 µM

## COc1cc2c(cc1OC)-c1cc3ccc(OC)c(OC)c3c[n+]1CC2 [Palmatine chloride]
[1]; [12]
  CC50 at 72 h: > 40 µM
[2]; [13]
  CC50 at 72 h: > 100 µM
[3]
  IC50: 17.4 µM
[4]
  inhibition at 20 µM: > 80%
  IC50: 2.66 µM
[10]
  cytotoxic effect on host cells, in words: relatively lower cytotoxicity
[5]
  IC50: 22.3 µM

## CC(C)=CC[C@@H](O)C1=CC(=O)c2c(O)ccc(O)c2C1=O [Shikonin]
[4]
  inhibition at 20 µM: > 80%

## C[C@H]1CC[C@@]2(OC1)O[C@H]1C[C@H]3[C@@H]4CC[C@@H]5C[C@@H](O[C@@H]6O[C@H](CO)[C@H](O)[C@H](O)[C@H]6O[C@@H]6O[C@H](CO)[C@@H](O)[C@H](O)[C@H]6O)CC[C@]5(C)[C@H]4CC[C@]3(C)[C@H]1[C@@H]2C [Timosaponin A-III]
[4]
  inhibition at 20 µM: > 80%

Reference: article PMC9976467, “Anti-Trypanosoma cruzi activity of Coptis rhizome extract and its constituents” (Tropical Medicine and Health, 2023)
